According to patent US9833497B2, “Human originated EGF domain proteins and use of the same” (CHENGDU SOURCEBIO LIMITED-LIABILITY COMPANY, priority 2013, dated 2017):

Key:
Assay type in all cases: cell-based
[1] = tested on: Pseudomonas aeruginosa; experiment: MIC against Gram-negative bacteria: Pseudomonas aeruginosa
Method in brief: (§1)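 Read-out is absence of bacterial growth, with MIC set at the lowest recombinant protein concentration achieving it. Bacteria, pre-grown in LB to McFarland 0.5 and resuspended, were exposed at 5×10^5 CFU/mL to two-fold diluted human EGF domain proteins in triplicate at 37° C, 175 rpm.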

[2] = tested on: Klebsiella pneumonia; experiment: MIC against Gram-negative bacteria: Klebsiella pneumonia
Method in brief: as §1

[3] = tested on: Moraxella catarrhalis; experiment: MIC against Gram-negative bacteria: Moraxella catarrhalis
Method in brief: as §1

[4] = tested on: Enterobacter cloacae; experiment: MIC against Gram-negative bacteria: Enterobacter cloacae
Method in brief: as §1

[5] = tested on: Aeromonas hydrophila; experiment: MIC against Gram-negative bacteria: Aeromonas hydrophila
Method in brief: as §1

[6] = tested on: Serratia marcescens; experiment: MIC against Gram-negative bacteria: Serratia marcescens
Method in brief: as §1

[7] = tested on: Proteus mirabilis; experiment: MIC against Gram-negative bacteria: Proteus mirabilis
Method in brief: as §1

[8] = tested on: Proteus vulgaris; experiment: MIC against Gram-negative bacteria: Proteus vulgaris
Method in brief: as §1

[9] = tested on: E. coli BL21; experiment: MIC against Gram-negative bacteria: E. coli BL21
Method in brief: as §1

[10] = tested on: Citrobacter diversus; experiment: MIC against Gram-negative bacteria: Citrobacter diversus
Method in brief: as §1

[11] = tested on: E. coli DH5α; experiment: Antibacterial activity: MIC and growth curve against E. coli DH5α in 96-well plate; details: minimal inhibitory concentration against E. coli DH5α; 96-well plate, 5×10^5 CFU/mL, 37° C., judged after 8 h
Method in brief: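 Log-phase bacteria (OD600 ~0.5) resuspended in LB at 5×10^5 CFU/mL, exposed to recombinant protein at 50, 25, 12.5 μg/mL final in triplicate, 37 °C shaking at 175 rpm. OD600 read every 30 min; MIC is lowest concentration showing no growth.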

[12] = P. aeruginosa, 10 h cultivation at 37° C., 5×10^5 CFU/mL
[13] = K. pneumonia, 10 h cultivation at 37° C., 5×10^5 CFU/mL
[14] = M. catarrhalis, 10 h cultivation at 37° C., 5×10^5 CFU/mL
[15] = E. cloacae, 10 h cultivation at 37° C., 5×10^5 CFU/mL
[16] = A. hydrophila, 10 h cultivation at 37° C., 5×10^5 CFU/mL
[17] = S. marcescens, 10 h cultivation at 37° C., 5×10^5 CFU/mL
[18] = P. mirabilis, 10 h cultivation at 37° C., 5×10^5 CFU/mL
[19] = P. vulgaris, 10 h cultivation at 37° C., 5×10^5 CFU/mL
[20] = E. coli BL21, 10 h cultivation at 37° C., 5×10^5 CFU/mL
[21] = C. diversus, 10 h cultivation at 37° C., 5×10^5 CFU/mL
[22] = 96-well plate, 5×10^5 CFU/mL, 37° C., 10 h
[23] = 10 h cultivation at 37° C., 5×10^5 CFU/mL, two-fold serial dilution

PRT187 (KVDRCTSNPCANGGQCLNRGPSRMCRCRPGFTGTYCE; listed as Homo sapiens)
MIC (μg/mL) P. aeruginosa [1, 12]: 25 µg/mL
MIC (μg/mL) K. pneumonia [2, 13]: 12.5 µg/mL
MIC (μg/mL) M. catarrhalis [3, 14]: 12.5 µg/mL
MIC (μg/mL) E. cloacae [4, 15]: 25 µg/mL
MIC (μg/mL) A. hydrophila [5, 16]: 12.5 µg/mL
MIC (μg/mL) S. marcescens [6, 17]: 25 µg/mL
MIC (μg/mL) P. mirabilis [7, 18]: 25 µg/mL
MIC (μg/mL) P. vulgaris [8, 19]: 12.5 µg/mL
MIC (μg/mL) E. coli BL21 [9, 20]: 12.5 µg/mL
MIC (μg/mL) C. diversus [10, 21]: 25 µg/mL
MIC [11]: 25 µg/mL

PRT673 (DVDECLDESNCRNGVCENTRGGYRCACTPPAEYSPAQRQCL; listed as Homo sapiens)
MIC P. aeruginosa [1, 22]: 50 µg/mL
MIC K. pneumonia [2, 22]: 50 µg/mL
MIC M. catarrhalis [3, 22]: 25 µg/mL
MIC E. cloacae [4, 22]: 25 µg/mL
MIC A. hydrophila [5, 22]: 50 µg/mL
MIC S. marcescens [6, 22]: 50 µg/mL
MIC P. mirabilis [7, 22]: 50 µg/mL
MIC P. vulgaris [8, 22]: 12.5 µg/mL
MIC E. coli BL21 [9, 22]: 12.5 µg/mL
MIC C. diversus [10, 22]: 25 µg/mL
MIC [11]: 50 µg/mL

PRT770 (FRDPCDPNPCQNDGICVNVKGMASCRCISGHAFFYTGERCQ; listed as Homo sapiens)
MIC (μg/mL) P. aeruginosa [1, 12]: 50 µg/mL
MIC (μg/mL) K. pneumonia [2, 13]: 12.5 µg/mL
MIC (μg/mL) M. catarrhalis [3, 14]: 25 µg/mL
MIC (μg/mL) E. cloacae [4, 15]: 50 µg/mL
MIC (μg/mL) A. hydrophila [5, 16]: 25 µg/mL
MIC (μg/mL) S. marcescens [6, 17]: 50 µg/mL
MIC (μg/mL) P. mirabilis [7, 18]: 50 µg/mL
MIC (μg/mL) P. vulgaris [8, 19]: 12.5 µg/mL
MIC (μg/mL) E. coli BL21 [9, 20]: 12.5 µg/mL
MIC (μg/mL) C. diversus [10, 21]: 12.5 µg/mL
MIC [11]: 50 µg/mL

PRT466 (RHTACLSSPCLNGGTCHLIVATGTTVCACPPGFAGRLCN; listed as Homo sapiens)
MIC against P. aeruginosa [1, 22]: 12.5 µg/mL
MIC against K. pneumonia [2, 22]: 50 µg/mL
MIC against M. catarrhalis [3, 22]: 50 µg/mL
MIC against E. cloacae [4, 22]: 12.5 µg/mL
MIC against A. hydrophila [5, 22]: 50 µg/mL
MIC against S. marcescens [6, 22]: 12.5 µg/mL
MIC against P. mirabilis [7, 22]: 12.5 µg/mL
MIC against P. vulgaris [8, 22]: 50 µg/mL
MIC against E. coli BL21 [9, 22]: 50 µg/mL
MIC against C. diversus [10, 22]: 12.5 µg/mL
MIC [11]: 12.5 µg/mL

PRT1043 (HGPNCSQECRCHNGGLCDRFTGQCRCAPGYTGDRCR; listed as Homo sapiens)
MIC ([1]; P. aeruginosa, 10 h cultivation at 37° C.): 25 µg/mL
MIC ([2]; K. pneumonia, 10 h cultivation at 37° C.): 50 µg/mL
MIC ([3]; M. catarrhalis, 10 h cultivation at 37° C.): 25 µg/mL
MIC ([4]; E. cloacae, 10 h cultivation at 37° C.): 25 µg/mL
MIC ([5]; A. hydrophila, 10 h cultivation at 37° C.): 25 µg/mL
MIC ([6]; S. marcescens, 10 h cultivation at 37° C.): 50 µg/mL
MIC ([7]; P. mirabilis, 10 h cultivation at 37° C.): 12.5 µg/mL
MIC ([8]; P. vulgaris, 10 h cultivation at 37° C.): 50 µg/mL
MIC ([9]; E. coli BL21, 10 h cultivation at 37° C.): 12.5 µg/mL
MIC ([10]; C. diversus, 10 h cultivation at 37° C.): 50 µg/mL
MIC [11]: 50 µg/mL

PRT1047 (SNTCTCKNGGTCLPENGNCVCAPGFRGPSCQ; listed as Homo sapiens)
MIC P. aeruginosa [1, 23]: 25 µg/mL
MIC K. pneumonia [2, 23]: 50 µg/mL
MIC M. catarrhalis [3, 23]: 12.5 µg/mL
MIC E. cloacae [4, 23]: 25 µg/mL
MIC A. hydrophila [5, 23]: 12.5 µg/mL
MIC S. marcescens [6, 23]: 12.5 µg/mL
MIC P. mirabilis [7, 23]: 12.5 µg/mL
MIC P. vulgaris [8, 23]: 12.5 µg/mL
MIC E. coli BL21 [9, 23]: 50 µg/mL
MIC C. diversus [10, 23]: 50 µg/mL
MIC [11]: 50 µg/mL
